# Assay results published in publication PMC7759869 (Biomedicines, 2020).
# Columns and labels:
# aldehyde oxidase = biological target: T1, aldehyde oxidase (Homo sapiens, UniProt Q06278); assay: Oxidation of cabozantinib by recombinant aldehyde oxidase; format: in vitro ADME; details: human recombinant enzyme, data not shown
# T1 construct: purchased Gentest Corp., Woburn, MA, USA; host or cells: insect cells (baculovirus)
# T1 sequence (Q06278 1-1338): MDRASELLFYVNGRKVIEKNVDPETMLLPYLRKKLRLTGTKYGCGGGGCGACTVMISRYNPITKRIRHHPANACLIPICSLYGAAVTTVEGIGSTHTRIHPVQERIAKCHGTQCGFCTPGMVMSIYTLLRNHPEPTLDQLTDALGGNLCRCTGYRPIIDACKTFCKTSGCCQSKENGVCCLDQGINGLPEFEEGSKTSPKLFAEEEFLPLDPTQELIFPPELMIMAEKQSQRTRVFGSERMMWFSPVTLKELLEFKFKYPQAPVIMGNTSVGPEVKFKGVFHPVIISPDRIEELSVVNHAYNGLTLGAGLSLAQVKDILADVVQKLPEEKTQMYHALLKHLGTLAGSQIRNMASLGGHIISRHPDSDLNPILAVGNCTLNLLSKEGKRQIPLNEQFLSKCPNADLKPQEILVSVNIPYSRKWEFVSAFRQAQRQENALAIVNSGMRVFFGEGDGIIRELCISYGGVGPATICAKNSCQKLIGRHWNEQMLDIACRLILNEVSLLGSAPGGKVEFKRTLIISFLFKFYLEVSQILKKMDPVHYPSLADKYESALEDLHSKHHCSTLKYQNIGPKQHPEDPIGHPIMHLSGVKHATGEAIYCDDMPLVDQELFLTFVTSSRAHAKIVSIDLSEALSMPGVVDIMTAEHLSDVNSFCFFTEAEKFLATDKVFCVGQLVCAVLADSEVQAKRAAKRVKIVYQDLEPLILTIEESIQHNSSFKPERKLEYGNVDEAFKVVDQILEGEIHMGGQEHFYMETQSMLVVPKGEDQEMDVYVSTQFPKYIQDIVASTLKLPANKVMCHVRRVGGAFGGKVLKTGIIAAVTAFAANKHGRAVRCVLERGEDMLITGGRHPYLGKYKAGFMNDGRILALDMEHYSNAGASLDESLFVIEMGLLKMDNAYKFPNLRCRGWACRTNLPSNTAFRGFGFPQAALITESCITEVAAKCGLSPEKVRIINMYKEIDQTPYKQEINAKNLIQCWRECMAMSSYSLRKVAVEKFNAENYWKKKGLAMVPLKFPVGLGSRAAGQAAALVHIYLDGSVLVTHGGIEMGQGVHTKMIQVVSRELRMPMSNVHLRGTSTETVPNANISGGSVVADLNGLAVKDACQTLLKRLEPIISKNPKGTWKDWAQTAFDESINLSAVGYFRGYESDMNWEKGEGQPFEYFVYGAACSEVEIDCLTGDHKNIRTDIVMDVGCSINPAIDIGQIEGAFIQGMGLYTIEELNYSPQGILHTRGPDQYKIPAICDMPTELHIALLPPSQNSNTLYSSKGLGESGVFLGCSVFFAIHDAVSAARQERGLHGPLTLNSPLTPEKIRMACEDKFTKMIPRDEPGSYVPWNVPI
# CYP3A4 + cyt b5 = biological target: T2, CYP3A4 + cyt b5 (Homo sapiens, UniProt P08684); assay: Cabozantinib oxidation by recombinant CYP3A4 in the presence of cyt b5 (Supersomes); format: in vitro ADME; details: Supersomes with cyt b5 vs without, 50 µM cabozantinib
# T2 construct: purchased Corning (Corning, NY, USA); host or cells: insect cells (baculovirus)
# T2 sequence (P08684 whole entry): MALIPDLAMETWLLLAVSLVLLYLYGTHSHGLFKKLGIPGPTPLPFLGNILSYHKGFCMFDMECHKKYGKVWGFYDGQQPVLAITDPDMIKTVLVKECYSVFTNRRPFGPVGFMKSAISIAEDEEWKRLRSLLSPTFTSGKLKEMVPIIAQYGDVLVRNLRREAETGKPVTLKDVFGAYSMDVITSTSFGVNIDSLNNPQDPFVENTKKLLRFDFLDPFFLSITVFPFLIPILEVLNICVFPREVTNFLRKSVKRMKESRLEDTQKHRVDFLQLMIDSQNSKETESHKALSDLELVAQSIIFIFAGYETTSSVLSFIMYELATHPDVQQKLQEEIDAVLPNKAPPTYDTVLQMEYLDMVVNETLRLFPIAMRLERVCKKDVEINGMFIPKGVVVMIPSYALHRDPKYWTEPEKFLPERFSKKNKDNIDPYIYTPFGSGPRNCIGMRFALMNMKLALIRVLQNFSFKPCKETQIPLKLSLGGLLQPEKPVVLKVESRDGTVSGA
# From the text: Cabozantinib was from MedChemExpress (Monmouth Junction, NJ, USA). Standard of cabozantinib N-oxide was purchased from Toronto Research Chemicals (Toronto, Canada). Ketoconazole, NADPH and other chemicals were all purchased from Merck (Darnstadt, Germany). The purity of all chemicals met the standards of American Chemical Society, unless otherwise noted. Male human hepatic microsomes (pooled sample) (sample LOT: 3043885) were from Gentest Corp. (Woburn, MA, USA). Microsomes from livers of twelve human donors were obtained from Gentest Corp. (Woburn, MA, USA) (Lot. no. HG43-1, HG103, HG74, HG93, HG24, HG27, HG23, HG32, HK31, HK34, HG03 and HG42). Each human microsomal sample was characterized for CYP, FMO, total protein contents and specific CYP activities by Gentest Corp. and reanalyzed by us by assays described in the protocols of Gentest Corp. Our data were similar to those reported by Gentest Corp. (Table 1). Human recombinant enzymes were used in the forms of Supersomes™ and obtained from Corning (Corning, NY, USA). In Supersomes™, microsomal fractions were isolated from insect cells that were transfected with baculovirus constructs containing cDNA of human CYP enzymes (CYP1A1/2, 1B1, 2A6, 2B6, 2C8/9/18/19/, 2D6, 2E1, 3A4). The Supersomes™ also express NADPH:CYP oxidoreductase (POR). However, because they are microsomes (particles of broken endoplasmic reticulum), other enzymes (proteins) of the endoplasmic reticulum membrane (like NADH:cytochrome b5 reductase and cytochrome b5) are also expressed at basal levels in these Supersomes™. We also utilized Supersomes™, which overexpressed cytochrome b5, in a molar ratio of CYP to cytochrome b5 of 1 to 5. In Supersomes™, where cytochrome b5 was not overexpressed (see above), pure cytochrome b5 was added to reach a molar ratio of CYP to cytochrome b5 of 1 to 5. Reconstitution of Supersomes™ with purified cytochrome b5 was performed as described previously. Human recombinant FMOs and AO were also used in the forms of Supersomes™ (Gentest Corp., Woburn, MA, USA). These microsomal fractions were isolated from insect cells that are transfected with baculovirus constructs containing cDNA of human FMO1, FMO3, FMO5 or AO enzymes.
# The reaction was initiated by adding NADPH. In control incubations, either microsomes or CYP (FMO, AO) or NADPH were omitted. […] The reaction was stopped by extraction with ethyl acetate (2 × 1 mL). […] Cabozantinib metabolites separated by HPLC were characterized by mass spectroscopy (see further details below).
# CYP3A4 = CYP3A4 (Homo sapiens, UniProt P08684); details: cited from earlier work
# CYP3A4, sequence (P08684 whole entry): as above
# VEGFR2 = details: read-out: IC50 for VEGFR2; estimated; cited from earlier work
smiles,measurement,setting,value
"COc1cc2nccc(Oc3ccc(NC(=O)C4(C(=O)Nc5ccc(F)cc5)CC4)cc3)c2cc1OC [cabozantinib, N′1-{4-[(6,7-dimethoxyquinolin-4-yl)oxy]phenyl}-N1-(4-fluorophenyl)cyclopropane-1,1-dicarboxamide]",Oxidation of cabozantinib by aldehyde oxidase,aldehyde oxidase,ineffective
same,Increase of oxidation / metabolite formation by co-expression of cyt b5 with CYP3A4,CYP3A4 + cyt b5,more than 2.9 fold
same,Inhibition of CYP3A4-mediated testosterone 6β-hydroxylation,CYP3A4,did not inhibit
